# Earlier results, collected in US12263155B2, “Combinations of monoamine oxidase inhibitors and serotonin receptor agonists and their therapeutic use” (Remedi, Inc., priority 2022, dated 2025).
# Where two headings read alike, the source gives them in different places.
# Experiments:
# platelet MAO-B = target: T1, platelet MAO-B (Homo sapiens, UniProt P27338); conditions: cited from earlier work
# T1 construct: host or cells: human platelets
# T1 sequence (P27338 1-520): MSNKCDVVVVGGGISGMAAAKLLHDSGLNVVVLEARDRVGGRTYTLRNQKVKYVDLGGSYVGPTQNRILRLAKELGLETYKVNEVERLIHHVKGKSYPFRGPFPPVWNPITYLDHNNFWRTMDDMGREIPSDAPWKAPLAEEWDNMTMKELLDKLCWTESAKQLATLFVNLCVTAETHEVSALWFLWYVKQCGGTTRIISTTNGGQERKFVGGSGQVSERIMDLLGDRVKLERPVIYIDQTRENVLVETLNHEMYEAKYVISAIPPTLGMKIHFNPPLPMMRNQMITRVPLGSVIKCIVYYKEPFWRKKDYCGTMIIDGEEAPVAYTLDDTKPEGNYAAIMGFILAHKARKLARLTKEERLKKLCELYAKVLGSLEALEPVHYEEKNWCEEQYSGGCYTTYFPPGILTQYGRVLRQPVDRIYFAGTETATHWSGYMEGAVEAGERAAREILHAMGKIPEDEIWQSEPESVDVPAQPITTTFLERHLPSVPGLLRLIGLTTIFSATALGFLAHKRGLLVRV
# [1] = in vivo; cited from earlier work
structure (smiles),measurement,setting,value
O=C(NCCN1CCOCC1)c1ccc(Cl)cc1 [moclobemide],inhibition of platelet MAO-B,platelet MAO-B; 450 mg dose,32%
same,inhibition of platelet MAO-B,"platelet MAO-B; human subjects, single 100 mg dose",27%
"CN(C)CCc1c[nH]c2ccccc12 [DMT, N,N-dimethyltryptamine]",apparent volume of distribution,[1],36 to 55 L/kg
